This note sets out measurements from patent publication US20140370048A1, “COMPOSITION FOR TREATMENT OR PREVENTION OF HYPERLIPIDEMIA, CONTAINING ALCOHOL EXTRACTS OF OLIGOPORUS TEPHROLEUCUS” (POSTECH ACADEMY-INDUSTRY FOUNDATION, priority 2011, published 2014).

This test relates to cholesterol absorption in the digestive tract. Nature of the test: Amount of cholesterol absorption into blood from the digestive tract after oral 3H-cholesterol oleate in mice. The test is classed as in vivo. Particulars: 8-week old male Balb/c mouse, plasma six hours after administration, extract 20 ml of 10 mg/mL concentrated into 0.1 mL, Orlistat 400 μg (20 mg/kg), FIG. 2. On the procedure: Cholesterol oleate (Amersham, 100 μCi/mL) radiolabeled with ^3H was mixed with 1% (w/v) sodium carboxylmethyl cellulose (CMC-Na), 1% (v/v) Tween 80, and a non-labeled cholesterol oleate, and then 0.1 mL of the mixture was forcibly administered into each mouse through an oral zonde so that 1 μCi could be delivered to each mouse. Here, the mouse in the control group (an 8-week old male Balb/c with body weight of 25 g) was treated with 400 μg of Orlistat (20 mg/kg), which has an inhibitory effect against cholesterol absorption, and the mouse in the experimental group (an 8-week old male Balb/c with body weight of 25 g) was treated with 20 ml of the ethanol extract (10 mg/mL) of Oligoporus tephroleucus prepared in the Example after concentrating it into 0.1 mL. Six hours after the administration, blood samples were collected from the mice, and plasma was obtained by centrifuging the blood at […] at the rate of 14000 rpm, and the radioactive dose was measured by a liquid scintillator (Beta counter, Beckman LS1801). The Control group was not treated with anything that may inhibit the absorption of cholesterol. The amount of cholesterol absorption was determined as a relative value by dividing the radioactive dose of each group into the radioactive dose of the control group, in which the radioactive dose of the control group was set at ‘1’.

As to `CCCCCCCCCCC[C@@H](C[C@@H]1OC(=O)[C@H]1CCCCCC)OC(=O)[C@H](CC(C)C)NC=O` [Orlistat], the “inhibitory effect upon the cholesterol absorption (plasma radioactive dose relative to untreated control set at 1)” value is “significant inhibitory effect”.
